Each structure is given as a SMILES string.

We go through 13 compounds from ChEMBL document CHEMBL4376868, “Structure-Activity Relationship Study of Novel 6-Aryl-2-benzoyl-pyridines as Tubulin Polymerization Inhibitors with Potent Antiproliferative Properties” (J Med Chem, 2020).

Holding throughout (assay type): functional, cell-based
The subject of experiment [1] is MDA-MB-231. Briefly: Antiproliferative activity against human MDA-MB-231 cells measured after 72 hrs by MTS assay. As to conditions: MDA-MB-231, 72 h. In general terms: Tetrazolium assays rely on reduction of a dye to a coloured formazan, in cell work by metabolically active cells.
The test system of experiment [2] is MDA-MB-453. Briefly: Antiproliferative activity against human MDA-MB-453 cells measured after 72 hrs by MTS assay. As to conditions: MDA-MB-453, 72 h.
For experiment [3], the system named is SK-BR-3. Briefly: Antiproliferative activity against human SK-BR-3 cells measured after 72 hrs by MTS assay. The conditions noted are these: SK-BR-3, 72 h.
The test system of experiment [4] is A-375. Briefly: Antiproliferative activity against human A375 cells measured after 72 hrs by MTS assay. The conditions noted are these: A-375, 72 h.
In experiment [5] the test system is M14. Briefly: Antiproliferative activity against human M14 cells measured after 72 hrs by MTS assay. As to conditions: M14, 72 h.
The test system of experiment [6] is RPMI-7951. Briefly: Antiproliferative activity against human RPMI7951 cells measured after 72 hrs by MTS assay. As to conditions: RPMI-7951, 72 h.

For the compound `C=C(c1cc(OC)c(OC)c(OC)c1)c1cccc(-c2ccc(C)cc2)n1`, the IC50 (usually the point on the concentration scale where inhibition reaches its midpoint) in experiment [1] is 159 nM; in experiment [2] it was 155 nM; in experiment [3], 186 nM; in experiment [4], 207 nM; in experiment [5], 167 nM; in experiment [6], 154 nM.
Consider `COc1cc(C(=O)c2cncc(-c3ccc(C)c(O)c3)c2)cc(OC)c1OC`, for which the concentration for half-maximal inhibition (IC50) in experiment [1] was determined as 66.3 nM; in experiment [2] it was 64.8 nM; in experiment [3] it was 62.7 nM; in experiment [4], 60.6 nM; in experiment [5], 57.1 nM; in experiment [6], 63.6 nM.
With `COc1cc(C(=O)c2cccc(-c3c(C)cc(C)cc3C)n2)cc(OC)c1OC`, the half-maximal inhibitory concentration (IC50) in experiment [1], in experiment [2], in experiment [3], in experiment [4], in experiment [5] and in experiment [6] was greater than 1000 nM in each case.
With `COc1cc(C(=O)c2cccc(-c3ccc(F)cc3)n2)cc(OC)c1OC`, the IC50 in experiment [1] was determined as 20.7 nM; in experiment [2], 21.4 nM; in experiment [3] it was 36.6 nM; in experiment [4] it was 25 nM; in experiment [5], 15.4 nM; in experiment [6] it was 23.2 nM.
Take `COc1cc(C(=O)c2cc(C)cc(-c3ccc(C)c(O)c3)n2)cc(OC)c1OC`: the IC50 in experiment [1] came to 17.2 nM; in experiment [2], 17.8 nM; in experiment [3], 15 nM; in experiment [4], 18.1 nM; in experiment [5], 22.3 nM; in experiment [6], 17.1 nM.
As for `COc1cc(C(=O)c2cccc(-c3cccnc3)n2)cc(OC)c1OC`, the IC50 in experiment [1] is 66.5 nM; in experiment [2] it was 102 nM; in experiment [3], 109 nM; in experiment [4], 60.1 nM; in experiment [5] it was 55.3 nM; in experiment [6] it was 51.9 nM.
With `COc1cc(C(=O)c2cccc(-c3ccc([N+](=O)[O-])cc3)n2)cc(OC)c1OC`, the IC50 in experiment [1] stood at 9 nM; in experiment [2], 6.9 nM; in experiment [3], 5 nM; in experiment [4], 11.4 nM; in experiment [5], 10.9 nM; in experiment [6], 12.9 nM.
`COc1cc(C(=O)c2cccc(-c3cccc([N+](=O)[O-])c3)n2)cc(OC)c1OC`: the IC50 in experiment [1] is 328 nM; in experiment [2] it was 881 nM; in experiment [3], 736 nM; in experiment [4], 311 nM; in experiment [5] it was 87.9 nM; in experiment [6], 54.7 nM.
With `COc1cc(C(=O)c2cccc(-c3c[nH]c4ccccc34)n2)cc(OC)c1OC`, the concentration for half-maximal inhibition (IC50) was 23.8 nM in experiment [1]; 8.5 nM in experiment [2]; 19.7 nM in experiment [3]; 19.2 nM in experiment [4]; 17.8 nM in experiment [5]; 19.5 nM in experiment [6].
For the compound `COc1cc(C(=O)c2cccc(-c3cc[nH]c3)n2)cc(OC)c1OC`, the IC50 in experiment [1] worked out at 41 nM; in experiment [2] it was 33.9 nM; in experiment [3] it was 51.2 nM; in experiment [4] it was 46.6 nM; in experiment [5], 45.1 nM; in experiment [6], 45.2 nM.
For `COc1cc(C(=O)c2cccc(-c3cncc4ccccc34)n2)cc(OC)c1OC`, the IC50 in experiment [1], in experiment [2], in experiment [3], in experiment [4], in experiment [5] and in experiment [6] was greater than 1000 nM throughout.
Turning to `COc1cc(C(=O)c2cccc(-c3ccncc3)n2)cc(OC)c1OC`, the IC50 in experiment [1], in experiment [2], in experiment [3], in experiment [4], in experiment [5] and in experiment [6] was greater than 1000 nM each time.
Consider `COc1cc(C(=O)c2cccc(-c3ccc(C(F)(F)F)cc3)n2)cc(OC)c1OC`, for which the half-inhibitory concentration (IC50) in experiment [1] amounted to 23.6 nM; in experiment [2], 7.9 nM; in experiment [3], 7 nM; in experiment [4] it was 19.8 nM; in experiment [5], 21.4 nM; in experiment [6], 19.6 nM.
